Test results as given in PubChem BioAssay (NCI).
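These data come from cells grown in 96-well plates and exposed to compound for 48 hours at five concentrations. GI50: concentration for 50% inhibition of growth. TGI marks complete inhibition of growth.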

Experiments:
Test in all cases: growth of human tumour cells (NCI), 48 h
[1] = system: NCI-H23 lung
[2] = system: NCI-H460 lung
[3] = system: NCI-H522 lung
[4] = system: NCI/ADR-RES ovarian
[5] = system: OVCAR-3 ovarian
[6] = system: OVCAR-4 ovarian
[7] = system: OVCAR-5 ovarian
[8] = system: OVCAR-8 ovarian
[9] = system: PC-3 prostate
[10] = system: RPMI-8226 leukemia
[11] = system: RXF 393 renal
[12] = system: SF-268 CNS
[13] = system: SF-295 CNS
[14] = system: SF-539 CNS
[15] = system: SK-MEL-2 melanoma
[16] = system: SK-MEL-28 melanoma
[17] = system: SK-MEL-5 melanoma
[18] = system: SK-OV-3 ovarian
[19] = system: SN12C renal
[20] = system: SNB-19 CNS
[21] = system: SNB-75 CNS
[22] = system: SR leukemia
[23] = system: SW-620 colon
[24] = system: T-47D breast
[25] = system: TK-10 renal
[26] = system: U251 CNS
[27] = system: UACC-257 melanoma
[28] = system: UACC-62 melanoma
[29] = system: UO-31 renal

COc1ccc([C@@H]2C(=O)N(c3cc(OC)c(OC)c(OC)c3)[C@H]2c2ccc(OC)c(O)c2)cc1
TGI [1]: 44100 nM | GI50 [2]: 36 nM | TGI [2]: > 100000 nM | GI50 [3]: 20.9 nM | TGI [3]: 58 nM | GI50 [4]: 24 nM | TGI [4]: 59.8 nM | GI50 [5]: 40.8 nM | TGI [5]: 28900 nM | GI50 [6]: 3980 nM | TGI [6]: > 100000 nM | GI50 [7]: 49.8 nM | TGI [7]: > 100000 nM | GI50 [8]: 33.2 nM | TGI [8]: 27800 nM | GI50 [9]: 200 nM | TGI [9]: > 100000 nM | GI50 [10]: 49.2 nM | TGI [10]: 12000 nM | GI50 [11]: 41.7 nM | TGI [11]: 51100 nM | GI50 [12]: 300 nM | TGI [12]: > 100000 nM | GI50 [13]: 32.4 nM | TGI [13]: 18900 nM | GI50 [14]: 22.1 nM | TGI [14]: 56.7 nM | GI50 [15]: 48.3 nM | TGI [15]: > 100000 nM | GI50 [16]: 13400 nM | TGI [16]: > 100000 nM | GI50 [17]: 35.4 nM | TGI [17]: 161 nM | GI50 [18]: 32.5 nM | TGI [18]: 65200 nM | GI50 [19]: 41.3 nM | TGI [19]: > 100000 nM | GI50 [20]: 284 nM | TGI [20]: > 100000 nM | GI50 [21]: 44.4 nM | TGI [21]: 51700 nM | GI50 [22]: 31.6 nM | TGI [22]: 25700 nM | GI50 [23]: 42.8 nM | TGI [23]: > 100000 nM | GI50 [24]: 24300 nM | TGI [24]: > 100000 nM | GI50 [25]: 15100 nM | TGI [25]: > 100000 nM | GI50 [26]: 34 nM | TGI [26]: > 100000 nM | GI50 [27]: 13000 nM | TGI [27]: > 100000 nM | GI50 [28]: 82.5 nM | TGI [28]: 42300 nM | GI50 [29]: 134 nM | TGI [29]: 23700 nM
